{"source": "patent US20250345332A1", "about": "“APROCITENTAN FOR THE TREATMENT OF HYPERTENSION” (IDORSIA PHARMACEUTICALS LTD, priority 2022, published 2025)", "origin": "cited, not measured here", "key": {"[1]": {"tested_on": "subjects having essential hypertension", "settings": "after 8 weeks once daily, at trough, aprocitentan 5, 10, 25, 50 mg groups, lisinopril 20 mg, cited from earlier work"}, "[2]": {"tested_on": "subjects having essential hypertension", "settings": "lisinopril 20 mg, cited from earlier work"}, "[3]": {"tested_on": "patients with type 2 diabetes and overt diabetic nephropathy", "settings": "in vivo; cited from earlier work"}, "[4]": {"tested_on": "patients with rHT", "settings": "cited from earlier work"}}, "data": [{"smiles": "NCCCC[C@H](N[C@@H](CCc1ccccc1)C(=O)O)C(=O)N1CCC[C@H]1C(=O)O", "note": "[lisinopril, reference compound]", "values": [{"measurement": "mean reduction from baseline in diastolic blood pressure", "setting": "[1]; per-protocol population", "value": 8.4, "unit": "mmHg"}, {"measurement": "systolic blood pressure reductions", "setting": "[1]", "value": 12.8, "unit": "mmHg"}, {"measurement": "discontinuation from study treatment due to an adverse event", "setting": "[2]; aprocitentan 5-50 mg groups", "value": 3.7, "unit": "%"}, {"measurement": "mean body weight decrease from baseline", "setting": "[2]", "value": 0.3, "unit": "kg"}]}, {"smiles": "COc1ccccc1Oc1c(NS(=O)(=O)c2ccc(C)cn2)nc(-c2ccncc2)nc1OC", "note": "[Avosentan, avosentan]", "values": [{"measurement": "albumin-to-creatinine ratio (ACR)", "setting": "[3]", "value": "significantly reduced"}]}, {"smiles": "COc1cc(OC)nc(O[C@H](C(=O)O)C(OC)(c2ccccc2)c2ccccc2)n1", "note": "[darusentan]", "values": [{"measurement": "reduction of ambulatory blood pressure", "setting": "[4]; 14 weeks", "value": "demonstrated efficacy"}, {"measurement": "treatment effect on the primary endpoint systolic blood pressure", "setting": "[4]; 14 weeks", "value": "failed to show significant treatment effect"}, {"measurement": "fluid retention/edema (most frequent adverse event)", "setting": "[4]; versus 12% in each of the other groups", "value": 28, "unit": "%"}]}]}
